PubChem BioAssay AID1918942 (Molecular Pharmacology Branch, DTP, NCI, 2023)

System: 743489-274-T-PDC complex spheroid viability
Test: Anticancer human tumor 743489-274-T-PDC patient-derived renal cell carcinoma cell line growth inhibition
Conditions: for IC50: curve of first compound; for viability, T/C: stronger effect = lower value
In short: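 Drug combinations with the LSD1 inhibitor iadademstat tested on tumor cells co-cultured as spheroids with endothelial cells and mesenchymal stem cells. Concentrations descended in half-log increments from clinical Cmax or 10 microM.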
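Also: spheroids exposed to compounds for 7 days before readout.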
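For viability, T/C in this document: 100% = DMSO vehicle control wells.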

## O=C(c1cc(Cc2n[nH]c(=O)c3ccccc23)ccc1F)N1CCN(C(=O)C2CC2)CC1 + NC1CC1c1ccc(-c2cccc(O)c2)cc1
Second compound 0.1 µM
  IC50: > 10 µM
Second compound 0.316 µM
  IC50: > 10 µM
Second compound 1 µM
  IC50: > 10 µM
Second compound 3.16 µM
  IC50: > 10 µM
Second compound 10 µM
  IC50: > 10 µM
Second compound 0.1 µM, first compound 0.0316 µM
  viability, T/C: 112%
Second compound 0.1 µM, first compound 0.1 µM
  viability, T/C: 115%
Second compound 0.1 µM, first compound 0.316 µM
  viability, T/C: 106%
Second compound 0.1 µM, first compound 1 µM
  viability, T/C: 113%
Second compound 0.1 µM, first compound 3.16 µM
  viability, T/C: 95.7%
Second compound 0.1 µM, first compound 10 µM
  viability, T/C: 92.5%
Second compound 0.316 µM, first compound 0.0316 µM
  viability, T/C: 105%
Second compound 0.316 µM, first compound 0.1 µM
  viability, T/C: 110%
Second compound 0.316 µM, first compound 0.316 µM
  viability, T/C: 132%
Second compound 0.316 µM, first compound 1 µM
  viability, T/C: 97.4%
Second compound 0.316 µM, first compound 3.16 µM
  viability, T/C: 107%
Second compound 0.316 µM, first compound 10 µM
  viability, T/C: 115%
Second compound 1 µM, first compound 0.0316 µM
  viability, T/C: 117%
Second compound 1 µM, first compound 0.1 µM
  viability, T/C: 104%
Second compound 1 µM, first compound 0.316 µM
  viability, T/C: 114%
Second compound 1 µM, first compound 1 µM
  viability, T/C: 93.8%
Second compound 1 µM, first compound 3.16 µM
  viability, T/C: 93.3%
Second compound 1 µM, first compound 10 µM
  viability, T/C: 94.7%
Second compound 3.16 µM, first compound 0.0316 µM
  viability, T/C: 98.1%
Second compound 3.16 µM, first compound 0.1 µM
  viability, T/C: 103%
Second compound 3.16 µM, first compound 0.316 µM
  viability, T/C: 117%
Second compound 3.16 µM, first compound 1 µM
  viability, T/C: 106%
Second compound 3.16 µM, first compound 3.16 µM
  viability, T/C: 100%
Second compound 3.16 µM, first compound 10 µM
  viability, T/C: 99.3%
Second compound 10 µM, first compound 0.0316 µM
  viability, T/C: 118%
Second compound 10 µM, first compound 0.1 µM
  viability, T/C: 121%
Second compound 10 µM, first compound 0.316 µM
  viability, T/C: 120%
Second compound 10 µM, first compound 1 µM
  viability, T/C: 120%
Second compound 10 µM, first compound 3.16 µM
  viability, T/C: 95.8%
Second compound 10 µM, first compound 10 µM
  viability, T/C: 94.2%

## Nc1ncn(C2CC(O)C(CO)S2)c(=O)n1 (stereo not given) + NC1CC1c1ccc(-c2cccc(O)c2)cc1
Second compound 0.1 µM
  IC50: > 0.3 µM
Second compound 0.316 µM
  IC50: > 0.3 µM
Second compound 1 µM
  IC50: > 0.3 µM
Second compound 3.16 µM
  IC50: > 0.3 µM
Second compound 10 µM
  IC50: > 0.3 µM
Second compound 0.1 µM, first compound 0.000949 µM
  viability, T/C: 102%
Second compound 0.1 µM, first compound 0.003 µM
  viability, T/C: 94.5%
Second compound 0.1 µM, first compound 0.00949 µM
  viability, T/C: 105%
Second compound 0.1 µM, first compound 0.03 µM
  viability, T/C: 85.3%
Second compound 0.1 µM, first compound 0.0949 µM
  viability, T/C: 76.2%
Second compound 0.1 µM, first compound 0.3 µM
  viability, T/C: 74.8%
Second compound 0.316 µM, first compound 0.000949 µM
  viability, T/C: 95.4%
Second compound 0.316 µM, first compound 0.003 µM
  viability, T/C: 102%
Second compound 0.316 µM, first compound 0.00949 µM
  viability, T/C: 90.6%
Second compound 0.316 µM, first compound 0.03 µM
  viability, T/C: 83.3%
Second compound 0.316 µM, first compound 0.0949 µM
  viability, T/C: 74.3%
Second compound 0.316 µM, first compound 0.3 µM
  viability, T/C: 71.1%
Second compound 1 µM, first compound 0.000949 µM
  viability, T/C: 94.2%
Second compound 1 µM, first compound 0.003 µM
  viability, T/C: 89.6%
Second compound 1 µM, first compound 0.00949 µM
  viability, T/C: 81.5%
Second compound 1 µM, first compound 0.03 µM
  viability, T/C: 77.4%
Second compound 1 µM, first compound 0.0949 µM
  viability, T/C: 73.5%
Second compound 1 µM, first compound 0.3 µM
  viability, T/C: 73.2%
Second compound 3.16 µM, first compound 0.000949 µM
  viability, T/C: 96.5%
Second compound 3.16 µM, first compound 0.003 µM
  viability, T/C: 85.8%
Second compound 3.16 µM, first compound 0.00949 µM
  viability, T/C: 83%
Second compound 3.16 µM, first compound 0.03 µM
  viability, T/C: 78.5%
Second compound 3.16 µM, first compound 0.0949 µM
  viability, T/C: 75.1%
Second compound 3.16 µM, first compound 0.3 µM
  viability, T/C: 78%
Second compound 10 µM, first compound 0.000949 µM
  viability, T/C: 92.3%
Second compound 10 µM, first compound 0.003 µM
  viability, T/C: 85.1%
Second compound 10 µM, first compound 0.00949 µM
  viability, T/C: 86.9%
Second compound 10 µM, first compound 0.03 µM
  viability, T/C: 89%
Second compound 10 µM, first compound 0.0949 µM
  viability, T/C: 67.8%
Second compound 10 µM, first compound 0.3 µM
  viability, T/C: 64%
